These results are taken from patent US9303019B2, “Amino-pyrroline derivatives, and use thereof in the prevention and/or treatment of metabolic syndrome” (UNIVERSITE DE STRASBOURG, priority 2012, dated 2016).

What is called Ki is a measure of affinity in units of concentration, obtained from inhibition or displacement. Higher therefore signals weaker binding. Broadly, the melting point is the temperature, or range, at which the solid turns liquid.

In one data set the test system is α2-adrenergic receptors. As to the kind of experiment: Binding assay of the α2-adrenergic receptors on CHO cell membranes with [3H]RX821002. The following applies: CHO cells. On the set-up: species or system human. The protocol:
These membranes (30 μg proteins/ml for CHO-hα2A and CHO-hα2B, 100 μg protein/ml for CHO-hα2C) were incubated for 60 min at ambient temperature in binding buffer (33 mM Tris-HCl, 1 mM EDTA, pH 7.5) in a final volume of 500 μL containing 0.8 or 1 or 2 nM [^3H]RX821002 respectively for the adrenergic receptors hα2A, hα2B and hα2C.
Incubation was halted by rapid vacuum filtration through GF/C glass fibre filters followed by three successive washings in ice-cold binding buffer.
Non-specific binding was determined using 10 μM phentolamine.
(§1) The competitive assays were analyzed by non-linear regression using the GraphPad programme.
(§2) Ki values were determined using the method described by Cheng and Prussof (Cheng, Y. C.; Prusoff, W. H. Relationship between the Inhibition Constant (Ki) and the Concentration of Inhibitor which causes 50 percent Inhibition (I50) of an Enzymatic Reaction. Biochem. Pharmacol. 1973, 22, 3099-3108).

Data set [1] concerns the target I1 receptor (Homo sapiens, UniProt Q9Y2I1). As to the kind of experiment: Specific binding assay of the I1 receptor on human platelets with [125I]LNP 911. The protocol: Binding assays were performed at 37° C. using [^125I]LNP 911 as radioligand following the general procedure described but adapted to washed whole platelets (Greney, H.; Urosevic, D.; Schann, S.; Dupuy, L.; Bruban, V.; Ehrhardt, J,-D.; Bousquet, P.; Dontenwill, M. [^125I]2-(2-Chloro-4-iodo-phenylamino)-5-methyl-pyrroline (LNP911), a High-Affinity Radioligand Selective for I1 Imidazoline Receptors. Mol. Pharmacol. 2002, 62, 181-191).
Incubation was initiated through the addition of 900 to 950 μl of platelet suspension at a concentration of 500000/μl in a final volume of 1 ml Tyrode albumin and was performed at 37° C. for 5 min (equilibrium conditions). The competitive assays were conducted using a single concentration of radioligand ([…], 200 000 cpm), in the presence of increasing concentrations of suitable non-labelled ligand. Non-specific binding was determined by the binding of [^125I]LNP 911 in the presence of 100 nM of non-labelled LNP 911 and represented about 10% of total radioactivity when […] of [^125I]LNP 911 were used.
The reaction was halted by rapid vacuum filtration through GF/C fibre glass filters followed by five rapid washings of the filters with 3 ml of ice-cold Tyrode ([…], pH 7.35). Radioactivity was measured using a gamma counter (Wallac 1410).
as §1, §2

In data set [2] the target is I1 receptor (Mus musculus, UniProt Q80TM9). As to the kind of experiment: Competitive binding to [125I]-PIC in membranes of 3T3 adipocytes. On the set-up: species or system murine. The following applies: 3T3 cell membranes.
Sequence of I1 receptor (Mus musculus, UniProt Q80TM9) (Q80TM9 whole entry, looked up): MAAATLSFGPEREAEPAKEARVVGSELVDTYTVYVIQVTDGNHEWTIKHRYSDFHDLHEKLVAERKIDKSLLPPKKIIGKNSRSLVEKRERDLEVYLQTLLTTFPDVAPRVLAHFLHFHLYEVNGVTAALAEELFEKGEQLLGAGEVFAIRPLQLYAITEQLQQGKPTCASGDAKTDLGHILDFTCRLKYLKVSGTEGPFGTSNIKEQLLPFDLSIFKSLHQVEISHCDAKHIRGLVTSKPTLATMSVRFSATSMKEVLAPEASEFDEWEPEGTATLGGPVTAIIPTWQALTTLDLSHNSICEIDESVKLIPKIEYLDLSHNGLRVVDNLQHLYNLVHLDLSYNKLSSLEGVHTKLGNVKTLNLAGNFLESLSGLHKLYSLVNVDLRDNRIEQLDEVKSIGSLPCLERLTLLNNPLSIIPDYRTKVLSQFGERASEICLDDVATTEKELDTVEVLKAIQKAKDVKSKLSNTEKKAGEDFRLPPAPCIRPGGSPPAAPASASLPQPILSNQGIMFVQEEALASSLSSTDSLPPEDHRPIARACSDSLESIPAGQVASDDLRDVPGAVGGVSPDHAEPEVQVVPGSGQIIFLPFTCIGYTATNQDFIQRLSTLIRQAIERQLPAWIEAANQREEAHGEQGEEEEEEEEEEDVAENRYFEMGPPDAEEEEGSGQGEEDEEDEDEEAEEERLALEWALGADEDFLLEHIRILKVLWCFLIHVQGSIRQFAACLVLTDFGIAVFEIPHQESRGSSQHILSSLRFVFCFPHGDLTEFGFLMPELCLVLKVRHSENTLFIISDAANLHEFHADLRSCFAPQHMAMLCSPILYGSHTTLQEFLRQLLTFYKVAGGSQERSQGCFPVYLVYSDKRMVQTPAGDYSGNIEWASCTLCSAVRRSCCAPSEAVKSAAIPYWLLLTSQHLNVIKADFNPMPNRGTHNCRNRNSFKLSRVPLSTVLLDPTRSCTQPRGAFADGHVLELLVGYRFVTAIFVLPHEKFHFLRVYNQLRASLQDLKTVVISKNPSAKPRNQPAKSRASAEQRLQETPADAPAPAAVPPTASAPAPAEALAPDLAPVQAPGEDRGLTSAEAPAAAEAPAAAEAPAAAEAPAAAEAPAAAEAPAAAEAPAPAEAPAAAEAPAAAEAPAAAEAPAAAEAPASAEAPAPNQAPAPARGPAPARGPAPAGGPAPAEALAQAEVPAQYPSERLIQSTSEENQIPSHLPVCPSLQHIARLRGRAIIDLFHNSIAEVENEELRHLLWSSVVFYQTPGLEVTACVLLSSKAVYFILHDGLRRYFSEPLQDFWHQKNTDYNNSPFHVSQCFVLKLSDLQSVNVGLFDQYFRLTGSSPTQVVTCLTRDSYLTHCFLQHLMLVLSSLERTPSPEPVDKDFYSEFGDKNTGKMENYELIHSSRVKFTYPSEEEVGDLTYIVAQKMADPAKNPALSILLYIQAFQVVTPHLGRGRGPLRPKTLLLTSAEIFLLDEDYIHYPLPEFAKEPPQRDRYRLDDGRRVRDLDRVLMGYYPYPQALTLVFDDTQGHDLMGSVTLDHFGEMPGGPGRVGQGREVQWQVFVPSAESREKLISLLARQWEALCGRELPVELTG
Method: The adipocytes were washed twice with ice-cold PBS, harvested and homogenized in 25 mM Tris-HCl buffer, pH 7.5, 1 mM EDTA. The homogenates were centrifuged at 20,000×g for 15 min at 4° C. and the supernatant stored at −80° C. until use. The residues were re-suspended in 25 mM Tris-HCl buffer, pH 7.5, 1 mM EDTA and stored at −80° C. […]
The reaction was halted by rapid vacuum filtration through GF/B fibre glass filters treated with 0.3% PEI using filtering equipment of Brandel® type, followed by three rapid washings of the filters using 3 ml of ice-cold 50 mM Tris-HCl buffer, pH 7.4. The radioactivity retained on the dried filters was determined using a Minaxi gamma counter (Packard, Meriden, CT, USA). Non-specific binding was determined by [^125I]PIC binding in the presence of 10 μM PIC and represented about 43% of total radioactivity.
For another data set, the system named is 3T3-L1 adipocytes. As to the kind of experiment: Secretion of adiponectin by differentiated 3T3-L1 adipocytes (ELISA). The data set is classed as cell-based, murine. The protocol: 3T3-L1 murine preadipocytes were cultured to confluence at 37° C. in DMEM medium containing 4.5 g/litre of D-glucose, 10% FCS and antibiotics. At confluence, differentiation of the 3T3-L1 adipocytes was initiated through the addition over 48 h of a mixture containing 100 μM methyl-isobutylxanthine, 100 nm dexamethasone and 175 nM insulin. The cells were then passaged every 2-3 days in DMEM, 10% FCS and 175 nM insulin. More than 95% of cells had the phenotype of mature adipocytes 10 days after confluence was reached.
To determine the secretion of adiponectin by mature adipocytes, differentiated 3T3-L1 adipocytes (10 days after confluence) were placed in culture in 12-well plates and washed three times with DMEM, then cultured for 6 h in DMEM alone, in the absence or presence of 3 μM of compound 1. In some wells the antagonist selective for the imidazoline receptors I1, efaroxan, was added (100 μM) 30 min before exposure to compound 1.
The culture medium was then recovered, centrifuged for 3 min at 10 000 g to remove cell contaminants, and the supernatant was stored at −80° C. until use. After two washings in cold PBS, the adipocytes were collected in PBS, homogenized and stored at −80° C. An aliquot of adipocyte homogenate was stored for protein determination. The adiponectin was measured using an ELISA kit following the manufacturer's recommendations. The adiponectin concentration was normalized with the cell protein content.
In general terms: In an ELISA, binding on a coated surface is turned into a signal by an enzyme label.

Where a name gives a salt, the structure may show the parent alone.

Sequence of I1 receptor (Homo sapiens, UniProt Q9Y2I1) (Q9Y2I1 2-1504 limits assumed): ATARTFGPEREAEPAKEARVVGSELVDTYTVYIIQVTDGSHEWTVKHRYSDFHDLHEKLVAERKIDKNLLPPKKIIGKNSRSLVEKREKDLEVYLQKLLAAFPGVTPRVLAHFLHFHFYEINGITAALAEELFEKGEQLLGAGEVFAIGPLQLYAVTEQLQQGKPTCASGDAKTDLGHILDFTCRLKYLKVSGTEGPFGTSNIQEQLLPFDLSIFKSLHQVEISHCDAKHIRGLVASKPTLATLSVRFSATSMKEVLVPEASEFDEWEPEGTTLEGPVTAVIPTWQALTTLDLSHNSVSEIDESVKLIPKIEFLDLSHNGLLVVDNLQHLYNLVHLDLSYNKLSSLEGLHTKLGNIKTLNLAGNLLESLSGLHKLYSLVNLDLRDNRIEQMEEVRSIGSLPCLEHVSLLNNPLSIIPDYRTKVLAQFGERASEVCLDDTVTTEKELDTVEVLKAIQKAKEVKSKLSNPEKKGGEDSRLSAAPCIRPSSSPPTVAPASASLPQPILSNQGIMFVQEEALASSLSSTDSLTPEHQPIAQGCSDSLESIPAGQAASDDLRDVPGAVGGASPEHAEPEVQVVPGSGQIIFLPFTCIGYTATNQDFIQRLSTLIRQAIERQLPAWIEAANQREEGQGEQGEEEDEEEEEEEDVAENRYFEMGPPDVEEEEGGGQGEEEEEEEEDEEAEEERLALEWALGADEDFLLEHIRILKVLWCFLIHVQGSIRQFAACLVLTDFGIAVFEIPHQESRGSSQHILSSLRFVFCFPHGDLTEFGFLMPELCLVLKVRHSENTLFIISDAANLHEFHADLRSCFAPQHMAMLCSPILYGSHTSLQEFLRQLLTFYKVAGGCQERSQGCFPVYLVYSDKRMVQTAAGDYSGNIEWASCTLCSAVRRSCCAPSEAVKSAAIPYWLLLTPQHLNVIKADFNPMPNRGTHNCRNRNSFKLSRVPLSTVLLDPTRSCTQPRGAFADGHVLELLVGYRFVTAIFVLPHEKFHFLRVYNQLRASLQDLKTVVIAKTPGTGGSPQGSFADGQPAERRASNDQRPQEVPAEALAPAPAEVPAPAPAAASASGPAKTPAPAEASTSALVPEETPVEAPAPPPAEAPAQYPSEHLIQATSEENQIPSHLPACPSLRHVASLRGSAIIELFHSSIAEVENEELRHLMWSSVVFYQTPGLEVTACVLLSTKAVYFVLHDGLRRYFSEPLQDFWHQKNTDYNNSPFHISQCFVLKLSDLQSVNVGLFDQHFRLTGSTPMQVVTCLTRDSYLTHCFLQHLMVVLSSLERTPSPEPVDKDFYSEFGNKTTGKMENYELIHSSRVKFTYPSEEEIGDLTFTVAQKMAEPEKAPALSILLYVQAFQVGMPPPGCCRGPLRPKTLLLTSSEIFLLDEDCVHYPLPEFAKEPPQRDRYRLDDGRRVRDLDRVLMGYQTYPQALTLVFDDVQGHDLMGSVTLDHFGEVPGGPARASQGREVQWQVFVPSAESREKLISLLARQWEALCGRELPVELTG

As to `CC1CCC(Nc2cccc3c2CCC3)=N1` (stereo not drawn) [Compound 5, Indan-4-yl-(5-methyl-4,5-dihydro-3H-pyrrol-2-yl)-amine hydrochloride], the Ki is > 10000 nM in the data set with α2-adrenergic receptors and 19 nM at I1 receptor [1]. For `Clc1cccc(Cl)c1N=C1NCCN1` [clonidine], on I1 receptor [2], the “share of total sites with high affinity” value was found to be 57%. With `CCC1(C2=NCCN2)Cc2ccccc2O1` (stereo not drawn) [efaroxan], the “secretion of adiponectin, efaroxan alone” value in the data set on 3T3-L1 adipocytes (100 μmol/l, control 212.6±19.1) is reported as 175.2±15.5 ng/ml/mg of proteins. Moreover, the “secretion of adiponectin, pre-incubation with efaroxan before compound 1” value with 3T3-L1 adipocytes (efaroxan 100 μmol/l 30 min before compound 1 3 μmol/l, vs. 378±38 with compound 1 alone) is recorded as 236±19.2 ng/ml/mg of proteins.

Regarding `CC1CCC(Nc2ccc(Cl)c3c2CCC3)=N1` (stereo not drawn) [Compound 20, (7-Chloro-indan-4-yl)-(5-methyl-4,5-dihydro-3H-pyrrol-2-yl)-amine hydrochloride], the inhibition constant Ki was > 10000 nM in the data set with α2-adrenergic receptors and 2.8 nM at I1 receptor [1]. In the same order, the values of `CC1CN=C(Nc2ccc(Cl)c3c2CCC3)C1` (stereo not drawn) [Compound 8, (7-Chloro-indan-4-yl)-(4-methyl-4,5-dihydro-3H-pyrrol-2-yl)-amine hydrochloride] are > 10000 nM and 0.22 nM.

With `Cc1ccc(NC2=NCC(C)C2)c2c1CCC2` (stereo not drawn) [Compound 9, (7-Methyl-indan-4-yl)-(4-methyl-4,5-dihydro-3H-pyrrol-2-yl)-amine hydrochloride], the Ki with α2-adrenergic receptors was > 10000 nM. Compound `CC1CCC(Nc2ccccc2Cl)=N1.Cl` (stereo not drawn) [Compound 13, (2-Chlorophenyl)-(5-methyl-4,5-dihydro-3H-pyrrol-2-yl)-amine hydrochloride] gave a melting point of 173 to 174 °C. The Ki in the data set with α2-adrenergic receptors is > 10000 nM.
